Read-outs that look alike come from different tables or passages of the source. Where a SMILES comes first, the peptide text is derived from it. Bridges are numbered along the chain shown (N, C = ends). Where no end group is shown, it is not given here. [ ]: non-standard residue; d: D form. pGlu = O=C1CC[C@@H](C(=O)O)N1
Legend:
mouse MC4R-EGFP = assay: kinetic BRET β-arrestin-2 recruitment assay (MC4R-EGFP / β-arrestin-2-nanoluciferase); assay type: cell-based; conditions: ligand 10 μM; HEK293 cells, MC4R-EGFP and β-arrestin-2-NLuc; mean ligand-induced BRET from 312 to 2433 s, NDP-α-MSH set as 100; three independent experiments
Experimental: Considering the physiological relevance of β-arrestins and their critical role in orchestrating MC4R signaling, we measured β-arrestin-2 recruitment in a kinetic bioluminescence resonance energy transfer (BRET) assay. We screened at a ligand concentration of 10 μM in HEK293 cells transiently expressing MC4R coupled to EGFP, and β-arrestin-2 fused to nanoluciferase. […] By contrast, Pr4LP1, Ar3LP1, Ar3LP2, and GoLP1 recruited β-arrestin-2 with greater efficiencies (>130%) than NDP-α-MSH (Figures 4 and S5B,C).
Figure 4 β-Arrestin-2 recruitment of designed MC4R peptide analogues. BRET assay was used to measure the transient interaction of MC4R-EGFP with β-arrestin-2-nanoluciferase (NLuc) in HEK293 cells over time following cell treatment with 10 μM of tachyplesin-1-like peptides (Ta1LPs, green), protegrin-4-like peptides (Pr4LPs, pink), arenicin-3-like peptides (Ar3LPs, orange), and gomesin-like peptides (GoLPs, blue). Relative BRET quantification was determined by calculating the mean value of ligand-induced BRET for each peptide ligand from 312 to 2433 s which was then divided by the mean value of ligand-induced BRET of NDP-α-MSH set as 100. Data are shown as mean ± SEM from three independent experiments.
BRET assay was performed as previously described.[32] Briefly, β-arrestin-2-nano luciferase and mouse MC4R-EGFP were cotransfected in a 1:10 ratio. 16 h post-transfection, 50,000 cells in 100 μL of phenol red-free DMEM with 10% FBS per well were transferred into white clear bottom 96-well plates and incubated overnight. On the day of the assay, cells were incubated for 1 h at 37 °C in phenol red- and serum-free DMEM. Furimazine (diluted 1:50) and peptide ligands (4×) were prepared in Hank’s balanced salt solution (HBSS), respectively. Prior to establishing the baseline and measuring kinetic BRET, furimazine was incubated for 5 min at 37 °C. The ability of peptide ligands to induce β-arrestin-2 recruitment was assessed by measuring light emissions for EGFP (510 nm) and nanoluciferase (460 nm) over 35 min using Flexstation 3 (Molecular Devices, San Jose, USA). The BRET ratio was calculated as emission EGFP (510 nm)/emission nanoluciferase (460 nm). The ligand-induced BRET was calculated by subtracting […].

[1] = molecular target: T1, mouse melanocortin 4 receptor (MC4R) (Mus musculus, UniProt P56450); assay: cAMP second messenger quantification assay (Cisbio HTRF cAMP Gs kit); assay type: cell-based
T1 construct: expressed in transfected cells; host or cells: HEK293 / HEK293T, transient transfection
Experimental: Figure 3 Functional cAMP assay of synthesized peptide analogues targeting MC4R. The accumulation of adenylyl cyclase-catalyzed cAMP of (A) tachylplesin-1-like peptides (Ta1LPs, green), (B) protegrin-4-like peptides ([…], pink), (C) arenicin-3-like peptides (Ar3LPs, orange), and (D) gomesin-like peptides (GoLPs, blue) was measured in HEK293 cells transiently expressing mouse melanocortin 4 receptor (MC4R). […] Data are from three independent experiments and are shown as mean ± SEM.
Assays were performed on cells transiently expressing mouse MC4R-EGFP. BamHI and SacI restriction sites were used to clone mouse MC4R N-terminally into a pEGFP-N1 vector. Peptide ligands were assayed for […] in a 384-well format and triplicate according to the Cisbio protocol. Briefly, 5 μL containing 10,000 cells per well was incubated with 5 μL of peptide solutions prepared 2× in 1× stimulation buffer. Following an incubation of peptide ligands at 37 °C for 30 min, d2-labeled cAMP and cryptate-labeled antibody (5 μL of each) were added to the mixture and further incubated for at least 1 h at room temperature. Subsequently, cAMP levels were quantified on a Flexstation 3 (Molecular Devices, San Jose, USA) using homogeneous time-resolved fluorescence resonance energy transfer and the ratio 665/620 nm. Samples were measured in technical triplicates.
Data analysis was performed with GraphPad Prism (GraphPad Software, San Diego). The potency (EC50) and maximum efficacy (Emax) values of peptide ligands were derived from functional data fitted to three- or four-parameter nonlinear regression curves constrained to a bottom of zero.

[2] = molecular target: mouse melanocortin 4 receptor fused to EGFP (mouse) (UniProt P56450)
[3] = molecular target: mouse melanocortin 4 receptor fused to EGFP (mouse) (UniProt P56450); remark: listed apart in the source
[4] = HEK293, read-out: efficacy cAMP Emax ± SD

Sequence of mouse melanocortin 4 receptor fused to EGFP (mouse) (P56450 whole entry, the tested form may be a part): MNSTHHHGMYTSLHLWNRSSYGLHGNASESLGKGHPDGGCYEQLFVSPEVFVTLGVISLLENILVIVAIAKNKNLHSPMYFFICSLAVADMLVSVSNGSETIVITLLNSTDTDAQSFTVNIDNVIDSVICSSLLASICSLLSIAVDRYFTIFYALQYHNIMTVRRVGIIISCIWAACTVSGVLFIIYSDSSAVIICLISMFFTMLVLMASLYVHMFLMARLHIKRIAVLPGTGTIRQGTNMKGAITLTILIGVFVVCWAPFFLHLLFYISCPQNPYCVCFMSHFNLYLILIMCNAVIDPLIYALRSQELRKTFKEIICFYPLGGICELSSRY
T1 sequence (P56450 whole entry): as the sequence (P56450 whole entry, the tested form may be a part) above

Molecule | BRET efficacy of β-arrestin-2 recruitment relative to NDP-α-MSH (mouse MC4R-EGFP) | EC50 [1] | Emax [1, 4] | Emax ([1]; HEK293; read-out: efficacy cAMP Emax ± SD) | cAMP accumulation (Cisbio HTRF) in HEK293 cells transiently expressing mouse MC4R-EGFP: EC50 [2] | cAMP accumulation (Cisbio HTRF) in HEK293 cells transiently expressing mouse MC4R-EGFP: Emax (normalised to NDP-α-MSH) [2] | recruitment of β-arrestin-2-nanoluciferase to MC4R-EGFP (kinetic BRET, HEK293 cells), 10 μM peptide: BRET efficacy relative to NDP-α-MSH (100) [3]
CC(C)[C@@H]1NC(=O)[C@H](CCCNC(=N)N)NC(=O)[C@H](Cc2c[nH]c3ccccc23)NC(=O)[C@H](Cc2c[nH]cn2)NC(=O)[C@@H](Cc2ccccc2)NC(=O)[C@H](Cc2c[nH]cn2)NC(=O)[C@H](Cc2ccc(O)cc2)NC(=O)[C@H](C(C)C)NC(=O)[C@@H]2CSSC[C@H](NC1=O)C(=O)N[C@@H](Cc1ccc(O)cc1)C(=O)N[C@@H](CCCNC(=N)N)C(=O)N[C@@H](CCCNC(=N)N)C(=O)N[C@H](C(=O)N[C@@H](CC(N)=O)C(N)=O)CSSC[C@H](NC(=O)[C@H](Cc1ccccc1)NC(=O)CN)C(=O)N[C@@H](Cc1c[nH]c3ccccc13)C(=O)N[C@@H](Cc1ccc(O)cc1)C(=O)N[C@@H](C(C)C)C(=O)N2 [Ar3LP4] (H-GFCWYVCVYH[dF]HWRVCYRRCN-NH2; disulfide 3-20, 7-16) | less than 60% | 794 nM | 106 ± 14% |  |  |  | 
CC(C)[C@@H]1NC(=O)[C@H](Cc2c[nH]c3ccccc23)NC(=O)[C@H](Cc2c[nH]cn2)NC(=O)[C@@H](Cc2ccccc2)NC(=O)[C@H](Cc2c[nH]cn2)NC(=O)[C@@H]2CCCN2C(=O)[C@H](Cc2ccc(O)cc2)NC(=O)[C@H](C(C)C)NC(=O)[C@@H]2CSSC[C@H](NC1=O)C(=O)N[C@@H](Cc1ccc(O)cc1)C(=O)N[C@@H](CCCNC(=N)N)C(=O)N[C@@H](CCCNC(=N)N)C(=O)N[C@H](C(=O)N[C@@H](CC(N)=O)C(N)=O)CSSC[C@H](NC(=O)[C@H](Cc1ccccc1)NC(=O)CN)C(=O)N[C@@H](Cc1c[nH]c3ccccc13)C(=O)N[C@@H](Cc1ccc(O)cc1)C(=O)N[C@@H](C(C)C)C(=O)N2 [Ar3LP2] (H-GFCWYVCVYPH[dF]HWVCYRRCN-NH2; disulfide 3-20, 7-16) | > 130% | 20 nM |  | 95 ± 10% |  |  | 
CC(C)C[C@@H]1NC(=O)[C@H](CCCNC(=N)N)NC(=O)[C@H](CCCNC(=N)N)NC(=O)[C@@H](NC(=O)[C@@H]2CCC(=O)N2)CSSC[C@@H](C(=O)N[C@@H](CCCNC(=N)N)C(=O)NCC(=O)N[C@@H](CCCNC(=N)N)C(N)=O)NC(=O)[C@H](Cc2ccc(O)cc2)NC(=O)[C@H]([C@@H](C)O)NC(=O)[C@H](C(C)C)NC(=O)[C@@H]2CSSC[C@H](NC1=O)C(=O)N1CCC[C@H]1C(=O)N[C@@H](Cc1c[nH]cn1)C(=O)N[C@H](Cc1ccccc1)C(=O)N[C@@H](Cc1c[nH]cn1)C(=O)N[C@@H](Cc1c[nH]c3ccccc13)C(=O)N2 [GoLP1] ([pGlu]CRRLCPH[dF]HWCVTYCRGR-NH2; disulfide 2-16, 6-12) | > 130% | 26 nM | 99 ± 3% |  |  |  | 
CC(C)C[C@@H]1NC(=O)[C@H](CCCNC(=N)N)NC(=O)[C@H](CCCNC(=N)N)NC(=O)[C@@H](NC(=O)[C@@H]2CCC(=O)N2)CSSC[C@@H](C(=O)N[C@@H](CCCNC(=N)N)C(=O)NCC(=O)N[C@@H](CCCNC(=N)N)C(N)=O)NC(=O)[C@H](Cc2ccc(O)cc2)NC(=O)[C@H]([C@@H](C)O)NC(=O)[C@H](C(C)C)NC(=O)[C@@H]2CSSC[C@H](NC1=O)C(=O)N[C@@H](Cc1c[nH]cn1)C(=O)N[C@H](Cc1ccccc1)C(=O)N[C@@H](Cc1c[nH]cn1)C(=O)N[C@@H](Cc1c[nH]c3ccccc13)C(=O)N2 [GoLP2] ([pGlu]CRRLCH[dF]HWCVTYCRGR-NH2; disulfide 2-15, 6-11) | less than 60% | 158 nM | 116 ± 11% |  |  |  | 
CC(C)[C@@H]1NC(=O)[C@H](CCCNC(=N)N)NC(=O)[C@H](Cc2c[nH]c3ccccc23)NC(=O)[C@H](CCCNC(=N)N)NC(=O)[C@@H](Cc2ccccc2)NC(=O)[C@H](Cc2c[nH]cn2)NC(=O)[C@H](Cc2ccc(O)cc2)NC(=O)[C@H](C(C)C)NC(=O)[C@@H]2CSSC[C@H](NC1=O)C(=O)N[C@@H](Cc1ccc(O)cc1)C(=O)N[C@@H](CCCNC(=N)N)C(=O)N[C@@H](CCCNC(=N)N)C(=O)N[C@H](C(=O)N[C@@H](CC(N)=O)C(N)=O)CSSC[C@H](NC(=O)[C@H](Cc1ccccc1)NC(=O)CN)C(=O)N[C@@H](Cc1c[nH]c3ccccc13)C(=O)N[C@@H](Cc1ccc(O)cc1)C(=O)N[C@@H](C(C)C)C(=O)N2 [Ar3LP5] (H-GFCWYVCVYH[dF]RWRVCYRRCN-NH2; disulfide 3-20, 7-16) | less than 60% | 251 nM | 99 ± 8% |  |  |  | 
GFCWYVCVYH[dF]HWRVCYRRCN-NH2 (disulfide 7-16, 3-20) [arenicin-3-like peptide 4] |  |  |  |  | 820 nM | 106% | < 60%
GFCWYVCVYH[dF]RWRVCYRRCN-NH2 (disulfide 7-16, 3-20) [arenicin-3-like peptide 5] |  |  |  |  | 260 nM | 99% | < 60%
RGGRLCYCH[dF]HWCFCVGR-NH2 (disulfide 8-13, 6-15; N-terminus assumed; SMILES CC(C)C[C@H](NC(=O)[C@H](CCCNC(=N)N)NC(=O)CNC(=O)CNC(=O)[C@@H](N)CCCNC(=N)N)C(=O)N[C@H]1CSSC[C@@H](C(=O)N[C@H](C(=O)NCC(=O)N[C@@H](CCCNC(=N)N)C(N)=O)C(C)C)NC(=O)[C@H](Cc2ccccc2)NC(=O)[C@@H]2CSSC[C@H](NC(=O)[C@H](Cc3ccc(O)cc3)NC1=O)C(=O)N[C@@H](Cc1c[nH]cn1)C(=O)N[C@H](Cc1ccccc1)C(=O)N[C@@H](Cc1c[nH]cn1)C(=O)N[C@@H](Cc1c[nH]c3ccccc13)C(=O)N2) [protegrin-4-like peptide 2] |  |  |  |  | 150 nM | 97% | 
RGGRLCYCH[dF]RWCFCVGR-NH2 (disulfide 8-13, 6-15; N-terminus assumed; SMILES CC(C)C[C@H](NC(=O)[C@H](CCCNC(=N)N)NC(=O)CNC(=O)CNC(=O)[C@@H](N)CCCNC(=N)N)C(=O)N[C@H]1CSSC[C@@H](C(=O)N[C@H](C(=O)NCC(=O)N[C@@H](CCCNC(=N)N)C(N)=O)C(C)C)NC(=O)[C@H](Cc2ccccc2)NC(=O)[C@@H]2CSSC[C@H](NC(=O)[C@H](Cc3ccc(O)cc3)NC1=O)C(=O)N[C@@H](Cc1c[nH]cn1)C(=O)N[C@H](Cc1ccccc1)C(=O)N[C@@H](CCCNC(=N)N)C(=O)N[C@@H](Cc1c[nH]c3ccccc13)C(=O)N2) [protegrin-4-like peptide 3] |  |  |  |  | 210 nM | 99% | 
